Test results from US11000033B2, “Ketone or oxime compound, and herbicide” (NISSAN CHEMICAL CORPORATION, priority 2014, dated 2021).

Assays:
Type in all cases: in vivo
Alopecurus myosuroides [1] = assay: Test Example 4: herbicidal effect by soil treatment (symbol J)
Method in brief: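 Seeds were sown in sterilized diluvial soil, covered with about 1.5 cm of soil, and the soil surface was sprayed with a water-diluted emulsion of the compound at a predetermined rate. Plants grew in a greenhouse at 25° C. to 30° C.; effects were scored visually 3 weeks after application.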

Galium spurium = assay: Test Example 5: herbicidal effect by foliage application, plastic box (symbol Q); details: 320 g/ha, 3 weeks after application
Method in brief: (§1)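 Effect is rated 3 weeks after a foliar spray of water-diluted emulsion concentrate at a predetermined herbicide amount. Plants had grown 14 days in a 25° C. to 30° C. greenhouse from seed in sterilized diluvial soil.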

[2] = system: Echinochloa crus-galli var. crus-galli; assay: Test Example 5: herbicidal effect by foliage application, plastic box (symbol H); details: 320 g/ha, 3 weeks after application
Method in brief: as §1

Digitaria ciliaris = assay: Test Example 5: herbicidal effect by foliage application, plastic box (symbol F); details: 320 g/ha, 3 weeks after application
Method in brief: as §1

Scirpus juncoides = assay: Test Example 1: herbicidal activity, application before weed generation in submerged conditions (symbol B); details: application herbicide amount 320 g/ha
Method in brief: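 Scores run 0 to 5 by herbicidal ratio, with 5 meaning 90% or more and 0 meaning 5% or lower, read 3 weeks after treatment. Compound was applied as a diluted emulsion to the water surface of submerged alluvial-soil pots on the day weed seeds were sown.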

[3] = system: directly sowed rice plant; assay: Test Example 3: effect on crop by foliage application, Wagner pot (symbol b); details: application herbicide amount 320 g/ha
Method in brief: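 Plants are raised from seed in flooded paddy conditions: water stands 0.1–0.5 cm over alluvial soil, and the pot is kept in a greenhouse at 25–30 °C. Species sown are barnyardgrass (E. crus-galli var. crus-galli), Leptochloa chinensis, Cyperus difformis and rice.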

Veronica persica = assay: Test Example 5: herbicidal effect by foliage application, plastic box (symbol R); details: 320 g/ha, 3 weeks after application
Method in brief: as §1

Chenopodium album = assay: Test Example 5: herbicidal effect by foliage application, plastic box (symbol O); details: 320 g/ha, 3 weeks after application
Method in brief: as §1

beet = assay: Test Example 4: effect on crop by soil treatment (symbol f); details: for f: beet, effect on crop grade: application herbicide amount 320 g/ha
Method in brief: (§2)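 Crop seeds, among them rice, wheat, beet and rapeseed, were sown in sterilized diluvial soil and covered with about 1.5 cm of soil. Boxes were kept in a greenhouse at 25° C. to 30° C. for plant growth.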

soybean = assay: Test Example 4: effect on crop by soil treatment (symbol d); details: for d: soybean, effect on crop grade: application herbicide amount 320 g/ha
Method in brief: as §2

Alopecurus myosuroides [4] = assay: Test Example 5: herbicidal effect by foliage application, plastic box (symbol J); details: 320 g/ha, 3 weeks after application
Method in brief: as §1

rapeseed = assay: Test Example 5: effect on crop by foliage application, plastic box (symbol g); details: 320 g/ha, 3 weeks after application
Method in brief: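 Greenhouse culture at 25° C. to 30° C. followed spot-like sowing into sterilized diluvial soil, with seed covered by roughly 1.5 cm of soil.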

Apera spica-venti = assay: Test Example 5: herbicidal effect by foliage application, plastic box (symbol L); details: 320 g/ha, 3 weeks after application
Method in brief: as §1

Leptochloa chinensis = assay: Test Example 3: herbicidal effect by foliage application, Wagner pot (symbol D); details: application herbicide amount 320 g/ha
Method in brief: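 Scoring took place 3 weeks after application, using fixed criteria. Plants had been raised from seed for 14 days at 25 to 30 °C in submerged alluvial soil before a diluted emulsion of the test compound was sprayed uniformly on the leaves.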

rice = assay: Test Example 4: effect on crop by soil treatment (symbol b); details: for b: directly sowed rice plant, effect on crop grade: application herbicide amount 320 g/ha
Method in brief: as §2

[5] = application herbicide amount 320 g/ha

Compound	J: Alopecurus myosuroides, herbicidal effect grade (Alopecurus myosuroides [1]; [5])	Q: Galium spurium, herbicidal effect grade (Galium spurium)	H: Echinochloa crus-galli var. crus-galli, herbicidal effect grade [2]	F: Digitaria ciliaris, herbicidal effect grade (Digitaria ciliaris)	Herbicidal effect grade, B: Scirpus juncoides (Scirpus juncoides)	effect on crop b (directly sowed rice plant), grade 0-5 [3]	R: Veronica persica, herbicidal effect grade (Veronica persica)	O: Chenopodium album, herbicidal effect grade (Chenopodium album)	f: beet, effect on crop grade (beet)	d: soybean, effect on crop grade (soybean)	J: Alopecurus myosuroides, herbicidal effect grade (Alopecurus myosuroides [4])	g: rapeseed, effect on crop grade (rapeseed)	L: Apera spica-venti, herbicidal effect grade (Apera spica-venti)	herbicidal effect on D (Leptochloa chinensis), grade 0-5 (Leptochloa chinensis)	b: directly sowed rice plant, effect on crop grade (rice)	also measured
C=CC(=O)CC1CC(O)=C(c2c(C)cc(C)cc2C)C1=O (stereo not drawn) [2-031]	3 (Herbicidal ratio of 40% or higher and lower than 70%)	0 (Herbicidal ratio of 5% or lower (almost no effect))	5 (Herbicidal ratio of 90% or more (almost completely withered))	5 (Herbicidal ratio of 90% or more (almost completely withered))	4 (Herbicidal ratio of 70% or higher and lower than 90%)	5 (Herbicidal ratio of 90% or more (almost completely withered))	4 (Herbicidal ratio of 70% or higher and lower than 90%)	0 (Herbicidal ratio of 5% or lower (almost no effect))	0 (Herbicidal ratio of 5% or lower (almost no effect))	0 (Herbicidal ratio of 5% or lower (almost no effect))	5 (Herbicidal ratio of 90% or more (almost completely withered))	4 (Herbicidal ratio of 70% or higher and lower than 90%)	4 (Herbicidal ratio of 70% or higher and lower than 90%)	5 (Herbicidal ratio of 90% or more (almost completely withered))	5 (Herbicidal ratio of 90% or more (almost completely withered))	
CON=C(C)CC1CC(O)=C(c2c(C)cc(-c3ccc(Cl)nc3)cc2C)C1=O (mixture of isomers) [6-035]	4 (Herbicidal ratio of 70% or higher and lower than 90%)	4 (Herbicidal ratio of 70% or higher and lower than 90%)	5 (Herbicidal ratio of 90% or more (almost completely withered))	5 (Herbicidal ratio of 90% or more (almost completely withered))	4 (Herbicidal ratio of 70% or higher and lower than 90%)	5 (Herbicidal ratio of 90% or more (almost completely withered))	4 (Herbicidal ratio of 70% or higher and lower than 90%)	3 (Herbicidal ratio of 40% or higher and lower than 70%)	0 (Herbicidal ratio of 5% or lower (almost no effect))	0 (Herbicidal ratio of 5% or lower (almost no effect))	5 (Herbicidal ratio of 90% or more (almost completely withered))	4 (Herbicidal ratio of 70% or higher and lower than 90%)	5 (Herbicidal ratio of 90% or more (almost completely withered))	5 (Herbicidal ratio of 90% or more (almost completely withered))	5 (Herbicidal ratio of 90% or more (almost completely withered))	
CON=C(C)CC1CC(O)=C(c2c(C)cc(Br)cc2C)C1=O (stereo not drawn) [6-003]	5 (Herbicidal ratio of 90% or more (almost completely withered))	3 (Herbicidal ratio of 40% or higher and lower than 70%)	5 (Herbicidal ratio of 90% or more (almost completely withered))	5 (Herbicidal ratio of 90% or more (almost completely withered))	4 (Herbicidal ratio of 70% or higher and lower than 90%)	5 (Herbicidal ratio of 90% or more (almost completely withered))	0 (Herbicidal ratio of 5% or lower (almost no effect))	1 (Herbicidal ratio of 5% or higher and lower than 20%)	0 (Herbicidal ratio of 5% or lower (almost no effect))	0 (Herbicidal ratio of 5% or lower (almost no effect))	5 (Herbicidal ratio of 90% or more (almost completely withered))	4 (Herbicidal ratio of 70% or higher and lower than 90%)	5 (Herbicidal ratio of 90% or more (almost completely withered))	5 (Herbicidal ratio of 90% or more (almost completely withered))	5 (Herbicidal ratio of 90% or more (almost completely withered))	
CON=C(C)CC1CC(OC(=O)c2ccc(C(F)(F)F)cc2)=C(c2c(C)cc(C)cc2C)C1=O (stereo not drawn) [1-149]					5 (Herbicidal ratio of 90% or more (almost completely withered))	5 (Herbicidal ratio of 90% or more (almost completely withered))								5 (Herbicidal ratio of 90% or more (almost completely withered))		J: Alopecurus myosuroides, herbicidal effect grade (Alopecurus myosuroides [1]; 320 g/ha): 5 (Herbicidal ratio of 90% or more (almost completely withered)); Q: Galium spurium, herbicidal effect (criteria 0-5) (Galium spurium): 3 (Herbicidal ratio of 40% or higher and lower than 70%); H: Echinochloa crus-galli var. crus-galli, herbicidal effect (criteria 0-5) [2]: 5 (Herbicidal ratio of 90% or more (almost completely withered)); F: Digitaria ciliaris, herbicidal effect (criteria 0-5) (Digitaria ciliaris): 5 (Herbicidal ratio of 90% or more (almost completely withered)); R: Veronica persica, herbicidal effect (criteria 0-5) (Veronica persica): 2 (Herbicidal ratio of 20% or higher and lower than 40%); O: Chenopodium album, herbicidal effect (criteria 0-5) (Chenopodium album): 2 (Herbicidal ratio of 20% or higher and lower than 40%); f: beet, effect grade on crop (beet; 320 g/ha): 0 (Herbicidal ratio of 5% or lower (almost no effect)); d: soybean, effect grade on crop (soybean; 320 g/ha): 0 (Herbicidal ratio of 5% or lower (almost no effect)); J: Alopecurus myosuroides, herbicidal effect (criteria 0-5) (Alopecurus myosuroides [4]): 5 (Herbicidal ratio of 90% or more (almost completely withered)); g: rapeseed, effect on crop (criteria 0-5) (rapeseed): 4 (Herbicidal ratio of 70% or higher and lower than 90%); L: Apera spica-venti, herbicidal effect (criteria 0-5) (Apera spica-venti): 5 (Herbicidal ratio of 90% or more (almost completely withered)); b: directly sowed rice plant, effect grade on crop (rice; 320 g/ha): 5 (Herbicidal ratio of 90% or more (almost completely withered))
CON=C(C)CC1CC(O)=C(c2c(C)cc(-c3ccc(Cl)cc3)cc2C)C1=O (mixture of isomers) [6-029]	5 (Herbicidal ratio of 90% or more (almost completely withered))	5 (Herbicidal ratio of 90% or more (almost completely withered))	5 (Herbicidal ratio of 90% or more (almost completely withered))	5 (Herbicidal ratio of 90% or more (almost completely withered))	3 (Herbicidal ratio of 40% or higher and lower than 70%)	5 (Herbicidal ratio of 90% or more (almost completely withered))	4 (Herbicidal ratio of 70% or higher and lower than 90%)	4 (Herbicidal ratio of 70% or higher and lower than 90%)	0 (Herbicidal ratio of 5% or lower (almost no effect))	0 (Herbicidal ratio of 5% or lower (almost no effect))	5 (Herbicidal ratio of 90% or more (almost completely withered))	4 (Herbicidal ratio of 70% or higher and lower than 90%)	5 (Herbicidal ratio of 90% or more (almost completely withered))	5 (Herbicidal ratio of 90% or more (almost completely withered))	5 (Herbicidal ratio of 90% or more (almost completely withered))	
